Like-named read-outs stand apart in the source and are kept apart here.
Key:
Type in all cases: in vivo
[1] = system: Surinam grass (Brachiaria decumbens); test: Test B pre/postemergence; settings: Urochloa decumbens; for pest or weed control at 125 g/ha: 125 g ai/ha; for pest or weed control at 500 g/ha: 500 g ai/ha
In short: (§1)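 Plants treated pre- or postemergence were compared visually with controls after 13 to 15 days. Ratings ran from 0, no effect, to 100, complete control.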

[2] = system: barnyardgrass (Echinochloa crus-galli); test: Test B pre/postemergence; settings: Echinochloa crus-galli; for pest or weed control at 125 g/ha: 125 g ai/ha; for pest or weed control at 500 g/ha: 500 g ai/ha
In short: as §1

[3] = system: cocklebur (Xanthium strumarium); test: Test B pre/postemergence; settings: Xanthium strumarium; for pest or weed control at 125 g/ha: 125 g ai/ha; for pest or weed control at 500 g/ha: 500 g ai/ha
In short: as §1

corn (Zea mays) = test: Test B pre/postemergence; settings: Zea mays
In short: as §1

[4] = system: crabgrass (Digitaria sanguinalis); test: Test B pre/postemergence; settings: Digitaria sanguinalis; for pest or weed control at 125 g/ha: 125 g ai/ha; for pest or weed control at 500 g/ha: 500 g ai/ha
In short: as §1

[5] = system: giant foxtail (Setaria faberii); test: Test B pre/postemergence; settings: Setaria faberi; for pest or weed control at 125 g/ha: 125 g ai/ha; for pest or weed control at 500 g/ha: 500 g ai/ha
In short: as §1

[6] = system: lambsquarters (Chenopodium album); test: Test B pre/postemergence; settings: Chenopodium album; for pest or weed control at 125 g/ha: 125 g ai/ha; for pest or weed control at 500 g/ha: 500 g ai/ha
In short: as §1

[7] = system: morningglory (Ipomoea coccinea); test: Test B pre/postemergence; settings: Ipomoea; for pest or weed control at 125 g/ha: 125 g ai/ha; for pest or weed control at 500 g/ha: 500 g ai/ha
In short: as §1

[8] = system: pigweed (Amaranthus retroflexus); test: Test B pre/postemergence; settings: Amaranthus retroflexus; for pest or weed control at 125 g/ha: 125 g ai/ha; for pest or weed control at 500 g/ha: 500 g ai/ha
In short: as §1

[9] = system: velvetleaf (Abutilon theophrasti); test: Test B pre/postemergence; settings: Abutilon theophrasti; for pest or weed control at 125 g/ha: 125 g ai/ha; for pest or weed control at 500 g/ha: 500 g ai/ha
In short: as §1

[10] = system: wheat (Triticum aestivum); test: Test B pre/postemergence; settings: Triticum aestivum; for plant injury at 125 g/ha: 125 g ai/ha; for plant injury at 500 g/ha: 500 g ai/ha
In short: as §1

[11] = system: blackgrass (Alopecurus myosuroides); test: Test B postemergence; settings: Alopecurus myosuroides, post-emergence
In short: as §1

wild oat (Avena fatua) = test: Test B postemergence; settings: Avena fatua, post-emergence
In short: as §1

[12] = system: barnyardgrass (Echinochloa crus-galli); test: Test B flooded paddy test; settings: Echinochloa crus-galli, Flood, 1000 g ai/ha; scale 0 (no effect) to 100 (complete control); read-out: Plant response rating, Barnyardgrass
In short: (§2)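 Rice, umbrella sedge, duck salad and barnyardgrass grown to 2-leaf stage under flooded paddy conditions and treated with formulated test chemicals. Kept in greenhouse 13–15 days, then visually rated against untreated controls on a 0–100 scale (0 no effect, 100 complete control).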

[13] = system: duck salad (Heteranthera limosa); test: Test B flooded paddy test; settings: Heteranthera limosa, Flood, 1000 g ai/ha; scale 0 to 100; read-out: Plant response rating, Ducksalad
In short: as §2

rice (Oryza sativa) = test: Test B flooded paddy test; settings: Oryza sativa, Flood, 1000 g ai/ha; scale 0 to 100; read-out: Plant response rating, Rice
In short: as §2

[14] = system: umbrella sedge (Cyperus difformis); test: Test B flooded paddy test; settings: Cyperus difformis, Flood, 1000 g ai/ha; scale 0 to 100; read-out: Plant response rating, Sedge, Umbrella
In short: as §2

Nc1nc(C2CC2)nc(CO)c1Br [Compound 21]
pest or weed control at 125 g/ha ([1]; post-emergence, Postemergence, scale 0 to 100 (0 no effect, 100 complete control), read-out: Surinam Grass plant response rating): 0% | pest or weed control at 500 g/ha ([1]; post-emergence, Postemergence, scale 0 to 100, read-out: Plant response rating, Surinam Grass): 0% | pest or weed control at 125 g/ha ([1]; pre-emergence, Preemergence, scale 0 to 100 (0 no effect, 100 complete control), read-out: Plant response rating, Surinam Grass): 0% | pest or weed control at 500 g/ha ([1]; pre-emergence, Preemergence, scale 0 to 100 (0 no effect, 100 complete control), read-out: Surinam Grass plant response rating): 20% | pest or weed control at 125 g/ha ([2]; post-emergence, Postemergence, scale 0 to 100 (0 no effect, 100 complete control), read-out: Barnyardgrass plant response rating): 0% | pest or weed control at 500 g/ha ([2]; post-emergence, Postemergence, scale 0 to 100, read-out: Plant response rating, Barnyardgrass): 0% | pest or weed control at 125 g/ha ([2]; pre-emergence, Preemergence, scale 0 to 100 (0 no effect, 100 complete control), read-out: Plant response rating, Barnyardgrass): 0% | pest or weed control at 500 g/ha ([2]; pre-emergence, Preemergence, scale 0 to 100 (0 no effect, 100 complete control), read-out: Barnyardgrass plant response rating): 10% | pest or weed control at 125 g/ha ([3]; post-emergence, Postemergence, scale 0 to 100 (0 no effect, 100 complete control), read-out: Cocklebur plant response rating): 0% | pest or weed control at 500 g/ha ([3]; post-emergence, Postemergence, scale 0 to 100, read-out: Plant response rating, Cocklebur): 10% | pest or weed control at 125 g/ha ([3]; pre-emergence, Preemergence, scale 0 to 100 (0 no effect, 100 complete control), read-out: Plant response rating, Cocklebur): 30% | pest or weed control at 500 g/ha ([3]; pre-emergence, Preemergence, scale 0 to 100 (0 no effect, 100 complete control), read-out: Cocklebur plant response rating): 80% | plant injury at 125 g/ha (corn (Zea mays); post-emergence, Postemergence, 125 g ai/ha, scale 0 to 100 (0 no effect, 100 complete control), read-out: Corn plant response rating): 0% | Corn plant response rating (crop injury, 0 = no effect, 100 = complete kill) at 500 g/ha (corn (Zea mays); post-emergence, Postemergence, 500 g ai/ha, scale 0 to 100): 0% | Corn plant response rating (crop injury, 0 = no effect, 100 = complete kill) at 125 g/ha (corn (Zea mays); pre-emergence, Preemergence, 125 g ai/ha, scale 0 to 100 (0 no effect, 100 complete control)): 0% | pest or weed control at 125 g/ha ([4]; post-emergence, Postemergence, scale 0 to 100 (0 no effect, 100 complete control), read-out: Crabgrass plant response rating): 0% | pest or weed control at 500 g/ha ([4]; post-emergence, Postemergence, scale 0 to 100, read-out: Plant response rating, Crabgrass): 0% | pest or weed control at 125 g/ha ([4]; pre-emergence, Preemergence, scale 0 to 100 (0 no effect, 100 complete control), read-out: Plant response rating, Crabgrass): 0% | pest or weed control at 500 g/ha ([4]; pre-emergence, Preemergence, scale 0 to 100 (0 no effect, 100 complete control), read-out: Crabgrass plant response rating): 60% | pest or weed control at 125 g/ha ([5]; post-emergence, Postemergence, scale 0 to 100 (0 no effect, 100 complete control), read-out: Foxtail, Giant plant response rating): 0% | pest or weed control at 500 g/ha ([5]; post-emergence, Postemergence, scale 0 to 100, read-out: Plant response rating, Foxtail, Giant): 0% | pest or weed control at 125 g/ha ([5]; pre-emergence, Preemergence, scale 0 to 100 (0 no effect, 100 complete control), read-out: Plant response rating, Foxtail, Giant): 0% | pest or weed control at 500 g/ha ([5]; pre-emergence, Preemergence, scale 0 to 100 (0 no effect, 100 complete control), read-out: Foxtail, Giant plant response rating): 10% | pest or weed control at 125 g/ha ([6]; post-emergence, Postemergence, scale 0 to 100 (0 no effect, 100 complete control), read-out: Lambsquarters plant response rating): 10% | pest or weed control at 500 g/ha ([6]; post-emergence, Postemergence, scale 0 to 100, read-out: Plant response rating, Lambsquarters): 20% | pest or weed control at 125 g/ha ([6]; pre-emergence, Preemergence, scale 0 to 100 (0 no effect, 100 complete control), read-out: Plant response rating, Lambsquarters): 70% | pest or weed control at 500 g/ha ([6]; pre-emergence, Preemergence, scale 0 to 100 (0 no effect, 100 complete control), read-out: Lambsquarters plant response rating): 80% | pest or weed control at 125 g/ha ([7]; post-emergence, Postemergence, scale 0 to 100 (0 no effect, 100 complete control), read-out: Morningglory plant response rating): 10% | pest or weed control at 500 g/ha ([7]; post-emergence, Postemergence, scale 0 to 100, read-out: Plant response rating, Morningglory): 30% | pest or weed control at 125 g/ha ([7]; pre-emergence, Preemergence, scale 0 to 100 (0 no effect, 100 complete control), read-out: Plant response rating, Morningglory): 50% | pest or weed control at 500 g/ha ([7]; pre-emergence, Preemergence, scale 0 to 100 (0 no effect, 100 complete control), read-out: Morningglory plant response rating): 90% | pest or weed control at 125 g/ha ([8]; post-emergence, Postemergence, scale 0 to 100 (0 no effect, 100 complete control), read-out: Pigweed plant response rating): 0% | pest or weed control at 500 g/ha ([8]; post-emergence, Postemergence, scale 0 to 100, read-out: Plant response rating, Pigweed): 30% | pest or weed control at 125 g/ha ([8]; pre-emergence, Preemergence, scale 0 to 100 (0 no effect, 100 complete control), read-out: Plant response rating, Pigweed): 50% | pest or weed control at 500 g/ha ([8]; pre-emergence, Preemergence, scale 0 to 100 (0 no effect, 100 complete control), read-out: Pigweed plant response rating): 70% | pest or weed control at 125 g/ha ([9]; post-emergence, Postemergence, scale 0 to 100 (0 no effect, 100 complete control), read-out: Velvetleaf plant response rating): 10% | pest or weed control at 500 g/ha ([9]; post-emergence, Postemergence, scale 0 to 100, read-out: Plant response rating, Velvetleaf): 30% | pest or weed control at 125 g/ha ([9]; pre-emergence, Preemergence, scale 0 to 100 (0 no effect, 100 complete control), read-out: Plant response rating, Velvetleaf): 10% | pest or weed control at 500 g/ha ([9]; pre-emergence, Preemergence, scale 0 to 100 (0 no effect, 100 complete control), read-out: Velvetleaf plant response rating): 80% | plant injury at 125 g/ha ([10]; post-emergence, Postemergence, scale 0 to 100 (0 no effect, 100 complete control), read-out: Wheat plant response rating): 10% | plant injury at 500 g/ha ([10]; post-emergence, Postemergence, scale 0 to 100, read-out: Plant response rating, Wheat): 20% | plant injury at 125 g/ha ([10]; pre-emergence, Preemergence, scale 0 to 100 (0 no effect, 100 complete control), read-out: Plant response rating, Wheat): 0% | plant injury at 500 g/ha ([10]; pre-emergence, Preemergence, scale 0 to 100 (0 no effect, 100 complete control), read-out: Wheat plant response rating): 30% | pest or weed control at 125 g/ha ([11]; 125 g ai/ha, scale 0 to 100 (0 no effect, 100 complete control), read-out: Blackgrass plant response rating): 10% | pest or weed control at 500 g/ha ([11]; 500 g ai/ha, scale 0 to 100, read-out: Plant response rating, Blackgrass): 20% | pest or weed control at 125 g/ha (wild oat (Avena fatua); 125 g ai/ha, scale 0 to 100 (0 no effect, 100 complete control), read-out: Oat, Wild plant response rating): 0% | pest or weed control at 500 g/ha (wild oat (Avena fatua); 500 g ai/ha, scale 0 to 100, read-out: Plant response rating, Oat, Wild): 0% | pest or weed control at 1000 g/ha [12]: 60% | pest or weed control at 1000 g/ha [13]: 80% | plant injury at 1000 g/ha (rice (Oryza sativa)): 40% | pest or weed control at 1000 g/ha [14]: 0%

Source: patent publication US8802597B2, “Herbicidal pyrimidines” (E I du Pont de Nemours and Company, priority 2003, dated 2014)
